How the values were obtained:
[1] = tested on: osteoarthritis of the knee; assay: Phase 2b study, change in WOMAC subscale scores in osteoarthritis of the knee; assay type: in vivo, human; settings: for WOMAC pain, stiffness and DPDA subscale scores: Baseline to Day 14
Method: This study evaluated the efficacy of a 14-day dosing regimen of crystalline otenaproxesul at doses of 150 mg, 200 mg and 250 mg compared to placebo in reducing osteoarthritis knee pain (a chronic pain condition) as measured by changes in the post-treatment Western Ontario and McMaster Universities Osteoarthritis Index (WOMAC) subscale pain score relative to each patient's pretreatment baseline WOMAC assessment. In patients with bilateral knee osteoarthritis, the most painful knee (index knee) or if in both knees of equal pain, then 1 index knee was noted and has been used for the WOMAC assessments throughout the study. The three doses were selected based on state-of-the-art knowledge of efficacy and safety for otenaproxesul at the time of the trial.
This study was a double-blind, placebo-controlled Phase 2B study that explored 3 different doses (150 mg, 200 mg, and 250 mg) of orally administered crystalline otenaproxesul in male and female patients diagnosed with osteoarthritis of the knee. Patients were randomly assigned in a 2:2:1:1 allocation ratio to otenaproxesul 250 mg, 200 mg, 150 mg, or placebo.
Study visits occurred on Day 1, Day 4, and Day 14 of the 14-day treatment phase and included WOMAC evaluations, blood samples for thromboxane B2 TXB2 and pharmacokinetic (PK) testing. The safety of otenaproxesul was evaluated through monitoring for adverse events (AEs), changes in physical examinations, vital signs measurements, and clinical laboratory evaluations.
The efficacy of treatment with otenaproxesul was assessed by measuring the change in the WOMAC VAS version 3.1 subscale pain, stiffness, and difficulties performing daily activities (DPDA) scores after 14 days relative to each patient's pretreatment baseline WOMAC score.
All patients who received 1 dose of study drug (otenaproxesul or placebo) and had at least 1 post-baseline WOMAC pain subscale score observation were included in the primary population for the analysis of efficacy (modified-intent-to-treat population [mITT]). Patients who met the criteria for the primary efficacy analyses and had no major protocol violations that could have impacted the assessment of efficacy (per protocol population [PP]) were evaluated as a supportive analysis. The primary and secondary endpoints were analyzed using a maximum likelihood mixed model repeated measure (MMRM). The model included treatment, visit, baseline WOMAC pain score, and treatment-by-visit interaction as fixed effects, and patient as a random effect. Dose-response analysis was conducted by using a contrast statement to the least squares (LS) means on Day 14 between the dose levels of otenaproxesul and placebo. For patients who received rescue medication within 12 hours before an efficacy assessment, the assessments at that visit were disregarded and considered missing. Analysis of the WOMAC pain subscale score, including the MMRM analysis and descriptive summary, were also presented by sex (male, female) in a subgroup analysis.

[2] = Phase 1 SAD/MAD clinical trial, safety and tolerability; assay type: in vivo, human
Method: Otenaproxesul (crystalline form) was orally administered at a range of doses to healthy volunteers, both as a single dose, and as a daily (or twice-daily) dose for 14 days. Each cohort consisted of 8 subjects, with 6 receiving otenaproxesul and 2 receiving placebo. A total of 8 cohorts were studied in the single-dose study (25 mg, 75 mg, 150 mg, 300 mg, 500 mg, 1000 mg, 1500 mg and 2000 mg), and 3 cohorts in the multiple-dose study (250 and 750 once daily, and 750 mg bid (e.g., 1500 mg/day) for 14 days). All adverse events were recorded, and blood samples were drawn prior to and for at least 72 h after drug administration for measurement of otenaproxesul-derived naproxen levels. Routine cardiovascular, renal, hepatic and hematological biomarkers were monitored, along with clinical signs. Multiple ascending dose studies examined otenaproxesul at doses of 250 and 750 mg once daily, and 750 mg twice daily.

[3] = Stability/purity of ASDs by HPLC; assay type: physicochemical; settings: no storage condition given
Method: The stability of the exemplary amorphous solid dispersions of the application were evaluated using HPLC and are shown in Tables 14 A and B.
HPLC analyses were performed on a Waters 2695 or Agilent 1200, or equivalent, instrument. The column was an ACE-5 C18 150 mm×4.6 mm, 5 μm or equivalent column. The flow rate was 1.0 mL/min, the injection volume was 10 μL, the column temperature was 25° C., the sample temperature was 5° C. and the wavelength for detection was 254 nm. Two eluents were used which were either (1) A: 1.8 g K2HPO4·3H2O dissolved in 1000 ml of water and pH adjusted to 5.5 using orthophosphoric acid and B: acetonitrile; or (2) A: 1.4 g K2HPO4·3H2O dissolved in 1000 ml of water and pH adjusted to 7.0 with 85% phosphoric acid and B: acetonitrile.

[4] = Pharmacokinetics in Beagle dogs of five formulations (Example 15); assay type: in vivo; settings: Day 1, 1- and 12-hour time points
Method: The pharmacokinetics of five different formulations of otenaproxesul (formerly ATB-346) were evaluated in Beagle dogs. Five groups of dogs (n=3/group) were orally administered their assigned formulations once daily for four days. Blood samples were taken for a full 24-hour PK profile on Day 1 and on Day 4.
Group 1 was administered crystalline otenaproxesul, Group 2 was administered milled crystalline otenaproxesul, Group 3 was administered micro-milled crystalline otenaproxesul, Group 4 was administered exemplary ASD no. 1 (see Example 7A above) and Group 5 was administered exemplary ASD no. 4 (see Example 7A above). Dose administered was 15 mg/kg (human equivalent dose of 525 mg).
Crystalline otenaproxesul was administered to dog Groups 1-3 in gelatin capsules by oral gavage. Exemplary ASD no. 1 and exemplary ASD no. 4 were administered as oral suspensions to dog Groups 4-5.

[5] = Dog pharmacokinetics of otenaproxesul amorphous dispersion (Example 20); assay type: in vivo, male Beagle dogs
Method: Summary: Over a 4-day treatment period dogs were administered four treatment doses of the otenaproxesul amorphous solid dispersion formulation (exemplary ASD no. 1) and a crystalline otenaproxesul control dose. Treatments corresponding to human equivalent doses of 70.2 mg, 140.4 mg, 280.8 mg and 561.6 mg otenaproxesul were administered once daily to male (n=4) dogs. Crystalline otenaproxesul was administered at the NOAEL dose equivalent to a human dose of 526.5 mg otenaproxesul once daily.
Pharmacokinetic data were evaluated on M25 plasma naproxen concentrations at 60 minutes post administration (C60), Day 1 M25 plasma exposure (AUC0-24) and Day 4 M25 plasma exposure (AUC0-Last). Assessment of dose proportional characteristics for M25 plasma concentration at 60 minutes post administration (C60) and at maximal concentration (Cmax) and AUC exposure were measured on Day 1 and Day 4 of treatment.

[6] = single dose, oral, 25 mg to 2000 mg, crystalline

In the case of `COc1ccc2cc([C@H](C)C(=O)Oc3ccc(C(N)=S)cc3)ccc2c1` [otenaproxesul, (S)-4-carbamothioylphenyl 2-(6-methoxynaphthalen-2-yl) propanoate], the “reduction in pain, stiffness and DPDA” value ([1]; 150 mg daily) was “positive reduction in pain, stiffness and DPDA”, the “actual mean change in WOMAC stiffness score, Baseline to Day 14” value ([1]; 150 mg once daily, 95% CI −60.3, −36.6) was −48.4 mm and the “decrease in WOMAC DPDA score vs placebo” value ([1]; 150 mg, Day 14) was “not statistically significant”. For the same compound, the “decrease in WOMAC pain score vs placebo” value ([1]; 150 mg, Day 14) was “not statistically significant”, the “LS mean change in WOMAC stiffness score, Baseline to Day 14” value ([1]; 200 mg once daily, 95% CI −62.6, −46.3) was −54.4 mm and the “LS mean change in WOMAC pain score, Baseline to Day 14” value ([1]; 200 mg once daily, 95% CI −159.3, −120.6) was −139.9 mm. The “LS mean change in WOMAC DPDA score, Baseline to Day 14” value ([1]; 200 mg once daily, 95% CI −502.9, 374.1 (so in the source)) was −438.5 mm, the “LS mean change in WOMAC stiffness score, Baseline to Day 14” value ([1]; 250 mg once daily, 95% CI −63.5, −47.8) was −55.6 mm and the LS mean change in WOMAC pain score, Baseline to Day 14 ([1]; 250 mg once daily, 95% CI −154.0, −116.6) was -135 mm. For the same compound, the “LS mean change in WOMAC DPDA score, Baseline to Day 14” value ([1]; 250 mg once daily, 95% CI −475.1, −350.7) was −412.9 mm, the “patients having at least a 30% reduction in WOMAC pain scores” value ([1]; 250 mg, Day 14) was 63.4% and the “patients having at least a 50% reduction in WOMAC pain scores” value ([1]; 250 mg, Day 14) was 43.5%. The “WOMAC pain, stiffness and DPDA subscale scores” value [1] was “clinically and statistically significant improvement”, the “decreases in WOMAC stiffness and DPDA scores” value ([1]; men, 200 mg, Day 14) was “reached statistical significance” and the “decreases in WOMAC pain, stiffness and DPDA scores vs placebo” value ([1]; women, 250 mg and 200 mg, Day 14) was “reached statistical significance”. The tolerability ([2]; all single, once daily administered dose levels) was “very well tolerated and shown to be safe”, the “gastrointestinal, cardiovascular, renal or hematological findings” value [2, 6] was “nor were there any significant gastrointestinal, cardiovascular renal, or hematological findings” and the serious adverse events [2, 6] was “did not produce any serious adverse events”.
For `COc1ccc2cc([C@H](C)C(=O)Oc3ccc(C(N)=S)cc3)ccc2c1` [crystalline otenaproxesul], the “WOMAC pain, stiffness and DPDA subscale scores” value [1] was “clinically and statistically significant improvement”, the “ATB-346 API” value [3] was 99.45% and the RRT-0.84 [3] was 0.18%. The “RRT-0.85 ATB-346-Amide” value [3] was 0.07%, the RRT-1.10 [3] was 0.25% and the “lower M25 plasma concentration than the exemplary ASDs” value [4] was 10 ×. The “M25 plasma concentration at 1 hour, Day 4, compared” value ([5]; crystalline HED 527 mg vs amorphous HED 562 mg) was “comparable M25 plasma concentrations”, the “Cmax Day 4/Day 1 ratio” value ([5]; dogs, HED 526.5 mg) was 1.4 and the “steady state pharmacokinetics of M25 compared” value ([5]; dogs, crystalline 526.5 mg vs amorphous 561.6 mg HED) was “virtually identical”.
